{
  "source": "patent US10758500B2",
  "about": "“Treating androgen deprivation therapy induced hot flashes and bone loss in men using cis-clomiphene” (ASPEN PARK PHARMACEUTICALS, INC., priority 2014, dated 2020)",
  "tested_on": "Men who have advance prostate cancer on ADT",
  "experiment": "Effect of cis-clomiphene on bone turnover markers and BMD (Example 2)",
  "format": "in vivo, human",
  "conditions": "50 mg/d for 6 months, Day 180 compared with baseline",
  "experimental": "Men who have advance prostate cancer on ADT are treated with 50 mg/d of substantially cis-clomiphene for 6 months. At Day 180, baseline bone turnover markers like serum bone specific alkaline phosphatase and are compared to current values as well as BMD by DEXA.\nBone analysis methodology may be carried out as described in U.S. Patent Publication No. 2004/0214898, the pertinent contents of which are incorporated herein by reference.",
  "data": [
    {"smiles": "CCN(CC)CCOc1ccc(/C(=C(/Cl)c2ccccc2)c2ccccc2)cc1", "note": "[cis-clomiphene]", "values": [
      {"measurement": "effects on bone: bone turnover markers (serum bone specific alkaline phosphatase) and BMD by DEXA", "result": "estrogenic effects on bone favorably affecting bone turnover markers and BMD"}
    ]}
  ]
}
